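Each compound was tested at five concentrations against cells in 96-well plates for 48 hours. Abbreviation: GI50, concentration required for 50% inhibition of growth.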 Calls of active or inactive are those of the source. Rule as the data show it: active = GI50 up to about 1.1 µM and inactive = higher.
Key:
Experiment in all cases: NCI tumour cell line growth inhibition, 48 h
A549 = tested on: A549
KM12 = tested on: KM12
NCI-H226 = tested on: NCI-H226
SK-OV-3 = tested on: SK-OV-3
NCI/ADR-RES = tested on: NCI/ADR-RES
HOP-62 = tested on: HOP-62
T47D = tested on: T47D
U-251 = tested on: U-251
NCI-H23 = tested on: NCI-H23
SF-539 = tested on: SF-539
K562 = tested on: K562
Hs-578T = tested on: Hs-578T
CAKI-1 = tested on: CAKI-1
786-0 = tested on: 786-0
MCF7 = tested on: MCF7
SK-MEL-2 = tested on: SK-MEL-2
RXF 393 = tested on: RXF 393
UO-31 = tested on: UO-31
MDA-MB-435 = tested on: MDA-MB-435
CCRF-CEM = tested on: CCRF-CEM
NCI-H460 = tested on: NCI-H460
TK-10 = tested on: TK-10
DU-145 = tested on: DU-145
M14 = tested on: M14
OVCAR-5 = tested on: OVCAR-5
SN12C = tested on: SN12C
IGROV-1 = tested on: IGROV-1
Malme-3M = tested on: Malme-3M
HCT-116 = tested on: HCT-116
HCT-15 = tested on: HCT-15
COLO 205 = tested on: COLO 205
A498 = tested on: A498
HT-29 = tested on: HT-29
PC-3 = tested on: PC-3
SF-268 = tested on: SF-268
MDA-N = tested on: MDA-N
UACC-257 = tested on: UACC-257
RPMI-8226 = tested on: RPMI-8226
OVCAR-4 = tested on: OVCAR-4
HOP-92 = tested on: HOP-92
HL-60 = tested on: HL-60
BT-549 = tested on: BT-549
NCI-H522 = tested on: NCI-H522
LOX IMVI = tested on: LOX IMVI
SK-MEL-5 = tested on: SK-MEL-5
OVCAR-3 = tested on: OVCAR-3
SF-295 = tested on: SF-295
MOLT-4 = tested on: MOLT-4
SR = tested on: SR
ACHN = tested on: ACHN
SW-620 = tested on: SW-620
OVCAR-8 = tested on: OVCAR-8
SK-MEL-28 = tested on: SK-MEL-28
MDA-MB-231 = tested on: MDA-MB-231
SNB-19 = tested on: SNB-19
HCC 2998 = tested on: HCC 2998
UACC-62 = tested on: UACC-62
EKVX = tested on: EKVX

## Cc1ccc(S(=O)(=O)N/N=C2\CCC3(O)CC2(C)CCC2C3CC2(C)C)cc1 (stereo not given)
A549
  GI50: 33.4 µM (inactive)
KM12
  GI50: 35.6 µM (inactive)
NCI-H226
  GI50: 27.4 µM (inactive)
SK-OV-3
  GI50: 37 µM (inactive)
NCI/ADR-RES
  GI50: 33.7 µM (inactive)
HOP-62
  GI50: 92.7 µM (inactive)
T47D
  GI50: 35.1 µM (inactive)
U-251
  GI50: 42.7 µM (inactive)
NCI-H23
  GI50: 49.5 µM (inactive)
SF-539
  GI50: 51.1 µM (inactive)
K562
  GI50: > 100 µM (inactive)
Hs-578T
  GI50: 20 µM (inactive)
CAKI-1
  GI50: 37.2 µM (inactive)
786-0
  GI50: 45.3 µM (inactive)
MCF7
  GI50: 39.6 µM (inactive)
SK-MEL-2
  GI50: 18.7 µM (inactive)
RXF 393
  GI50: 52.8 µM (inactive)
UO-31
  GI50: 24.4 µM (inactive)
MDA-MB-435
  GI50: 40.5 µM (inactive)
CCRF-CEM
  GI50: > 100 µM (inactive)
NCI-H460
  GI50: 19.3 µM (inactive)
TK-10
  GI50: 29.2 µM (inactive)
DU-145
  GI50: 36.2 µM (inactive)
M14
  GI50: 47.9 µM (inactive)
OVCAR-5
  GI50: 50.6 µM (inactive)
SN12C
  GI50: 57.8 µM (inactive)
IGROV-1
  GI50: 45.1 µM (inactive)
Malme-3M
  GI50: 53.2 µM (inactive)
HCT-116
  GI50: 30.7 µM (inactive)
HCT-15
  GI50: 36.2 µM
COLO 205
  GI50: 22.5 µM (inactive)
A498
  GI50: 36.8 µM (inactive)
HT-29
  GI50: 34.4 µM (inactive)
PC-3
  GI50: 22 µM (inactive)
SF-268
  GI50: 37.4 µM (inactive)
MDA-N
  GI50: 38.5 µM (inactive)
UACC-257
  GI50: 37.1 µM (inactive)
RPMI-8226
  GI50: > 100 µM (inactive)
OVCAR-4
  GI50: 28.4 µM (inactive)
HOP-92
  GI50: 28.4 µM (inactive)
HL-60
  GI50: > 100 µM (inactive)
BT-549
  GI50: 65.3 µM (inactive)
NCI-H522
  GI50: 20.9 µM (inactive)
LOX IMVI
  GI50: 32.1 µM (inactive)
SK-MEL-5
  GI50: 35.6 µM (inactive)
OVCAR-3
  GI50: 37.8 µM (inactive)
SF-295
  GI50: 33 µM (inactive)
MOLT-4
  GI50: 85.9 µM (inactive)
SR
  GI50: > 100 µM (inactive)
ACHN
  GI50: 31.8 µM (inactive)
SW-620
  GI50: 78 µM (inactive)
OVCAR-8
  GI50: 43.8 µM (inactive)
SK-MEL-28
  GI50: 31.1 µM (inactive)
MDA-MB-231
  GI50: 47.8 µM (inactive)
SNB-19
  GI50: 56.6 µM (inactive)
HCC 2998
  GI50: 46.3 µM (inactive)
UACC-62
  GI50: 36.6 µM (inactive)
EKVX
  GI50: 40.1 µM (inactive)

## NNC(=O)CCc1ccc2ccc3ccccc3c2c1
KM12
  GI50: > 100 µM (inactive)
NCI-H226
  GI50: 15.9 µM (inactive)
SK-OV-3
  GI50: > 100 µM (inactive)
NCI/ADR-RES
  GI50: 89.1 µM (inactive)
HOP-62
  GI50: > 100 µM (inactive)
T47D
  GI50: 70.6 µM (inactive)
U-251
  GI50: > 100 µM (inactive)
NCI-H23
  GI50: > 100 µM (inactive)
SF-539
  GI50: 54.6 µM (inactive)
K562
  GI50: > 100 µM (inactive)
Hs-578T
  GI50: 57.7 µM (inactive)
CAKI-1
  GI50: 54.3 µM (inactive)
786-0
  GI50: 94.4 µM (inactive)
MCF7
  GI50: > 100 µM (inactive)
SK-MEL-2
  GI50: > 100 µM (inactive)
RXF 393
  GI50: 94.4 µM (inactive)
UO-31
  GI50: 18.8 µM (inactive)
MDA-MB-435
  GI50: > 100 µM (inactive)
CCRF-CEM
  GI50: > 100 µM (inactive)
NCI-H460
  GI50: > 100 µM (inactive)
TK-10
  GI50: > 100 µM (inactive)
DU-145
  GI50: > 100 µM (inactive)
M14
  GI50: 71.8 µM (inactive)
OVCAR-5
  GI50: > 100 µM (inactive)
SN12C
  GI50: 68.1 µM (inactive)
IGROV-1
  GI50: > 100 µM (inactive)
Malme-3M
  GI50: 79.1 µM (inactive)
HCT-116
  GI50: > 100 µM (inactive)
HCT-15
  GI50: 82 µM
COLO 205
  GI50: > 100 µM (inactive)
A498
  GI50: 49.2 µM (inactive)
HT-29
  GI50: > 100 µM (inactive)
PC-3
  GI50: 67.3 µM (inactive)
SF-268
  GI50: 62.2 µM (inactive)
MDA-N
  GI50: > 100 µM (inactive)
UACC-257
  GI50: > 100 µM (inactive)
RPMI-8226
  GI50: 72.1 µM (inactive)
OVCAR-4
  GI50: 74.6 µM (inactive)
HOP-92
  GI50: 58.7 µM (inactive)
HL-60
  GI50: 0.312 µM (active)
BT-549
  GI50: 55.8 µM (inactive)
NCI-H522
  GI50: 28.8 µM (inactive)
LOX IMVI
  GI50: 98.9 µM (inactive)
SK-MEL-5
  GI50: 92.3 µM (inactive)
OVCAR-3
  GI50: 29.9 µM (inactive)
SF-295
  GI50: 78.7 µM (inactive)
MOLT-4
  GI50: 63.5 µM (inactive)
SR
  GI50: > 100 µM (inactive)
ACHN
  GI50: > 100 µM (inactive)
SW-620
  GI50: > 100 µM (inactive)
OVCAR-8
  GI50: > 100 µM (inactive)
SK-MEL-28
  GI50: > 100 µM (inactive)
MDA-MB-231
  GI50: > 100 µM (inactive)
SNB-19
  GI50: 85.7 µM (inactive)
HCC 2998
  GI50: > 100 µM (inactive)
UACC-62
  GI50: > 100 µM (inactive)
EKVX
  GI50: 16.4 µM (inactive)

Source: ChEMBL document CHEMBL1201862, “PubChem BioAssay data set” (2004)
